From US12642794B2, “Dose regimens for use of LY3154207 in the treatment of dopaminergic CNS disorders” (Eli Lilly and Company, priority 2018, dated 2026)

Columns and labels:
adult rhesus monkey [1] = test: Spatial Delayed Response Task, spatial working memory; type: in vivo, rhesus macaque; details: for spatial working memory performance after repeat of the dose: 2.5 mg/kg on Day 1 and repeated on Day 5
Method: Experimental Overview: A group of both aged and non-aged animals was tested at a single dose of 2.5 mg/kg and their performance was followed daily for the first six days and on alternate days thereafter. This was to ascertain that we could repeat the effects we observed previously at the lowest possible dose. The effects of repeating this dose on Day 5, at the […] mark, were examined in order to determine whether (i) an immediate diminution in performance could still be seen the next day and (ii) whether the treatment could achieve a relatively consistent and enduring enhancement of performance in the following days. Since this dose was also capable of inducing a short term deficit in performance, the effects of single administrations at lower doses of 0.1 and 1.0 mg/kg were examined.
All animals were rhesus macaques except one stumptail (Macaca arctoides). Details of the animal demographics are given with each set of results. It was desired to have younger animals in each study, however a preponderance of aged animals were studied, and females outnumbered males by 2 or 3 to one. The Spatial Delayed Response Task is established as one of the most reliable, sensitive, and valuable models in which to test spatial working memory in primates. The Spatial Delayed Response Task is implemented rigidly in a completely systematic format that is uniform within and between animals and between studies. The Spatial Delayed Response Task is designed to normalize performance across animals such they all normally perform at ˜70% correct. The Spatial Delayed Response Task directly challenges the same spatial working memory circuitry in human and nonhuman primates, including dorsolateral prefrontal cortex, posterior parietal cortex and MD thalamus. The Spatial Delayed Response Task is sensitive to multiple neuropharmacological manipulations, whether administered locally or systemically, including dopaminergic, nicotinic, glutamatergic, and GABAergic agents. In this task one of several well locations are baited with food in view of the animal and then covered with identical plaques. An opaque shutter is then lowered for one of 5 variable delays, and then raised to allow the animal to make a response to one of the well locations to retrieve the food treat. Each animal is stabilized (65-75% correct ±≤2.5%) prior to commencing any administration by varying the number of wells and the lengths of the delay. Each testing session consists of 20 trials, 4 trials at each of 5 delays (distributed semi-randomly) ranging from 0, 1, 2, 3, and 4 N seconds, where N is incremented from 1 to 10 according to ability. The number of wells ranges for 2 to 7 and thus stability is achieved by gradually varying the number of wells and the N factor. Original baseline is achieved on initial training and is standardized over twenty sessions, thereafter an animal typically undergoes regular testing to ensure a reasonably stable baseline. An absolute minimum of three baseline sessions are required prior to any experimental condition. Animals are not food deprived but instead reward for correct responses with their most preferred treats (such as yoghurt raisins, gummy bears, and almonds) and then fed their normal ration of nutritional biscuits shortly after cognitive testing.
DPTQ was formulated as a suspension in 20% Captisol/PBS at pH8. Great care was taken to protect the compound in sonication and it was injected (at a volume of 0.2 ml/kg) via a 21G hypodermic needle (to avoid blockage) into the gluteus maximus within 2 hours of formulation (kept on ice). Vehicle was refrigerated in sterile injectable vials for up to one month. Animals were fully acclimated to all procedures prior to enrollment into any study. They were assigned on a readiness for study basis and where relevant, assignment was semirandom between vehicle and treatment arms. IM injections were performed in the animals' home cage 1 hour prior to cognitive testing. […]

adult rhesus monkey [2] = test: as above; type: in vivo, rhesus macaque

For `C[C@H]1c2cccc(CC(C)(C)O)c2C[C@H](CO)N1C(=O)Cc1c(Cl)cccc1Cl` [DPTQ, 2-(2,6-dichlorophenyl)-1-((1S,3R)-5-(2-hydroxy-2-methylpropyl)-3-(hydroxymethyl)-1-methyl-3,4-dihydroisoquinolin-2 (1H)-yl) ethan-1-one], the “diminution in spatial working memory performance” value (adult rhesus monkey [1]; 0.1 mg/kg) was “No sign of any diminution in performance”, the “enhancement of spatial working memory performance” value (“enhancement” below) (adult rhesus monkey [1]; 0.1 mg/kg, 2-week period) was “modest” and the “spatial working memory performance versus baseline” value (adult rhesus monkey [1]; 0.1 mg/kg, Day 4) was “significant improvement over baseline”. For the same compound, the “early deficit in spatial working memory” value (adult rhesus monkey [1]; 1.0 mg/kg) was “not evident”, the “enhancement” value (adult rhesus monkey [1]; 1.0 mg/kg, significance on Day 5) was “stronger than for the 0.1 mg/kg dose” and the “effect on spatial working memory performance” value (adult rhesus monkey [1]; 2.5 mg/kg IM, Day 1) was “No immediate effect”. The “impairment of spatial working memory performance” value (adult rhesus monkey [1]; 2.5 mg/kg IM, Day 3) was roughly 10%, the “enhancement” value (adult rhesus monkey [1]; 2.5 mg/kg IM, starting from Day 4, prolonged) was roughly 10% and the “duration of sustained positive effect” value (adult rhesus monkey [1]; 2.5 mg/kg and above) was no less than 14 days. For the same compound, the “spatial working memory performance after repeat of the dose” value (adult rhesus monkey [1]; Day 6) was “distinctive drop in performance”, the “spatial working memory performance after repeat of the dose” value (adult rhesus monkey [1]; after Day 6) was “enhancement for the subsequent week” and the “difference between aged and non-aged animals” value (adult rhesus monkey [1]; 2.5 mg/kg, combined scores for Days 4, 5, and 6) was “No significant difference”. For the same compound, the “spatial working memory performance” value (adult rhesus monkey [1]; 24 to 48 hours post injection) was “substantially impaired”, the “spatial working memory performance” value (adult rhesus monkey [1]; 96 to 120 hours post injection) was “considerably enhanced” and the “acute effect on spatial working memory performance” value (adult rhesus monkey [2]; acute doses of 2.5 to 10 mg/kg IM) was “trend in reducing spatial working memory performance”. For the same compound, the “protection against ketamine induced cognitive deficits” value (adult rhesus monkey [2]; rhesus monkey, in vivo) was “little effect”.
